Experimental data reported in patent US20260376293A1, “METHODS FOR STUDYING GPR158 PHARMACOLOGY AND IDENTIFICATION OF ITS LIGANDS” (UNIVERSITY OF FLORIDA RESEARCH FOUNDATION, INCORPORATED, priority 2022, published 2026).

Target: T1, GPR158 (Homo sapiens, UniProt Q5T848)
T1 construct: expressed in transfected cells; host or cells: HEK293T/17
T1 sequence (Q5T848 24-1215): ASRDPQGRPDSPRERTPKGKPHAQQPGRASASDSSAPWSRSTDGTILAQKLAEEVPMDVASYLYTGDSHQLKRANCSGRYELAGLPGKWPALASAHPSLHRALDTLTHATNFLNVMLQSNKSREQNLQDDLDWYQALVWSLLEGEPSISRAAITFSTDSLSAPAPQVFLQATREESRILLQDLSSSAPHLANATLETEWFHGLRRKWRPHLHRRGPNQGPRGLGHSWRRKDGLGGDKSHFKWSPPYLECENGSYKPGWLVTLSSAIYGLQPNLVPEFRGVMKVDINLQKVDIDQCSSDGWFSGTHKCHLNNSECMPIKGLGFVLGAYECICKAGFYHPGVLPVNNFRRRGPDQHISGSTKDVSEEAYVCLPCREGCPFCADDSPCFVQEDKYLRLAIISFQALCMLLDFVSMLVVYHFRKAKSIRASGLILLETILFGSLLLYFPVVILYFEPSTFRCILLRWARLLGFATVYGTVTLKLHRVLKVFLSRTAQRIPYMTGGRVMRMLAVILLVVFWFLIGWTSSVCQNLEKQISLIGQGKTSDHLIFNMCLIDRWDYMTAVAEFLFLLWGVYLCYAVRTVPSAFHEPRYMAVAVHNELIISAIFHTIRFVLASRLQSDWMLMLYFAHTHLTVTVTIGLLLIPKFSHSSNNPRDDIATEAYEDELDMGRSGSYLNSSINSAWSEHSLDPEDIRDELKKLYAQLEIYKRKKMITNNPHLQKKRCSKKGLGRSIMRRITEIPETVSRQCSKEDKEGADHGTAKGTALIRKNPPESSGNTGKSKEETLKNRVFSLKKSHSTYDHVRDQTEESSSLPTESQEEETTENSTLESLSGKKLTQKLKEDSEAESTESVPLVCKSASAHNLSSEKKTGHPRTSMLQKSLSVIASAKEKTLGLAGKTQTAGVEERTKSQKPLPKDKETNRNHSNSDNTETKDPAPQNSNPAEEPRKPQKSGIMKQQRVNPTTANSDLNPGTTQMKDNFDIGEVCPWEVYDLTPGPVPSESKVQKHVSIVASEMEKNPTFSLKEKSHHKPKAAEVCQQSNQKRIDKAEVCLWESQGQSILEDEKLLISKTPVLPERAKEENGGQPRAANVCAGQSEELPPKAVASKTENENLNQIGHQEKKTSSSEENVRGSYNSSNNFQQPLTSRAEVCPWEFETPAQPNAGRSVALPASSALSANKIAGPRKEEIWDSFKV
T1 sequence (P49802 1-495 partner): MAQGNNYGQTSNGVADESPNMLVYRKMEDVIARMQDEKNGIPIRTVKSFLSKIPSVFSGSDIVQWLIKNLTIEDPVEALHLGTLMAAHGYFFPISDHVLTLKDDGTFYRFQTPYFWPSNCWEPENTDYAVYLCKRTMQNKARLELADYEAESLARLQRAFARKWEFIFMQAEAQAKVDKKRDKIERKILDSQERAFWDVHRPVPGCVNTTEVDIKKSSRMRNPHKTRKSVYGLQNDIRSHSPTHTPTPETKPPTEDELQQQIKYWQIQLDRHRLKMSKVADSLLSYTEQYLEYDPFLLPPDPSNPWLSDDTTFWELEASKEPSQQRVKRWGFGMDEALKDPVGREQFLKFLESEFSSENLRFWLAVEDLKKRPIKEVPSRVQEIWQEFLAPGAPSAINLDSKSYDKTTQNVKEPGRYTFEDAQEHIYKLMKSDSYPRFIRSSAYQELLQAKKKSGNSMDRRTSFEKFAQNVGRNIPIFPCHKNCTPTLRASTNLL
T1 sequence (O14775 1-395 partner): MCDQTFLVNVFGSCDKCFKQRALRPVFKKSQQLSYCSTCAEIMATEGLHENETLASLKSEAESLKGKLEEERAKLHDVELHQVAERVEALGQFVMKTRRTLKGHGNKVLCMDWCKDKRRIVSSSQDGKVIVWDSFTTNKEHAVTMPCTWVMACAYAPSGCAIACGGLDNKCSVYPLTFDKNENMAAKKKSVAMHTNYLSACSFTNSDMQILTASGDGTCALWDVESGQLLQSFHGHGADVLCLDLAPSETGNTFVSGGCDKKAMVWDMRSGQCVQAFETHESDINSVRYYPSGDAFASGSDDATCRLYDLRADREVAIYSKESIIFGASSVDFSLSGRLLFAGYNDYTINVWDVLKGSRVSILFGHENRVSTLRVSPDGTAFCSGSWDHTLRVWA
Experiment: HTRF cAMP Gαi assay, HEK293T/17 cells
Type: cell-based
Details: forskolin; GPR158-RGS7/Gβ5, HEK293T/17
Description: FIGS. 18A-18C: A. Schematic representation of HTRF Gαi CAMP assay. B. cAMP standard curve to establish assay window and dynamic range. The data shown here indicate the HTRF ratio plotted as a function of various concentrations of cAMP standards (0.17 nM to 712 nM). The curve fitting was performed using Nonlinear regression analysis in Graphpad Prism software. C. Gly treatment of GPR158-RGS7/Gβ5 expressing HEK293T/17 cells leads to depletion of cAMP levels in a concentration dependent manner. Data shown here represent the HTRF ratio normalized with respect to the buffer treated cells (control) (Mean±SEM from 1 experiment performed in triplicates).
HEK293T/17 cells were transfected with GPR158, RGS7 and Gβ5 plasmids as mentioned above by Maxcyte electroporation. 24 hours post transfection, cells were harvested by centrifugation, counted, and seeded in a white 384 well plate at a density of 6000 cells per well after resuspending in the stimulation buffer provided with the kit. […] The HTRF signal was measured using the HTRF optic module (donor excitation: 337 nm, donor emission: 620 nm, acceptor emission 665 nm) and laser energy source in the Pherastar FSX microplate reader (BMG Labtech).
The data were plotted as the ratio of fluorescence emission intensities by acceptor and donor (Em 665 nm/Em 620 nm). […]

Structure (SMILES): NCC(=O)O [glycine]
- HTRF signal change (cAMP decrease): increase in HTRF signal in a Gly dose dependent fashion
